Results reported in the NIST ThermoML archive (doi:10.1016/j.jct.2013.08.023).
Numbers after ± are expanded uncertainties.

How the values were obtained:
[1] = refractive index (Na D-line) (dimensionless); settings: 298.15 K; 101 kPa; Liquid; Standard Abbe refractometry
[2] = 298.15 K; 101 kPa; Liquid; Vibrating tube method

Compound	refractive index [1]	mass density [2] [kg/m3]
CCCC[N+](C)(C)C.O=S(=O)([N-]S(=O)(=O)C(F)(F)F)C(F)(F)F [butyltrimethylammonium bis(trifluoromethylsulfonyl)imide]	1.40806 ± 0.00031	1393 ± 0.2
CCO [ethanol]	1.35936 ± 0.00037	785.9 ± 0.2
CCCCCCC [heptane]	1.38529 ± 0.00037	679.6 ± 0.3
CCCCCC [hexane]	1.37241 ± 0.00037	655.2 ± 0.3
CO [methanol]	1.32636 ± 0.00037	786.9 ± 0.2
CCCC[N+](C)(CCCC)CCCC.O=S(=O)([N-]S(=O)(=O)C(F)(F)F)C(F)(F)F [tributylmethylammonium bis((trifluoromethyl)sulfonyl)imide]	1.42614 ± 0.00032	1261.3 ± 0.2
